Assay results as given in patent US11352308B2, “Compound and semiconductor material containing same” (DIC Corporation, priority 2016, dated 2022).

Assay: Solubility in p-xylene at room temperature (25° C.), visual complete dissolution
Type: physicochemical
Method: Solubility was evaluated by completely dissolving compound (101) visually by adding p-xylene at room temperature (25° C.).

Solubility of compound | SMILES
0.7 wt % | CCCCCCCCc1ccc2cc3cc(-c4ccccc4)ccc3cc2c1 [Compound (103)]
1.1 wt % | CCCCCCCc1ccc2cc3cc(-c4ccccc4)ccc3cc2c1 [Compound (102)]
0.4 wt % | CCCCCCCCCCc1ccc2cc3cc(-c4ccc(C)cc4)ccc3cc2c1 [Compound (107)]
0.4 wt % | CCCCCCCCCCc1ccc2cc3cc(-c4ccccc4)ccc3cc2c1 [Compound (105)]
0.8 wt % | CCCCCCc1ccc2cc3cc(-c4ccc(C)cc4)ccc3cc2c1 [Compound (106)]
0.7 wt % | CCCCCCCCCc1ccc2cc3cc(-c4ccccc4)ccc3cc2c1 [Compound (104)]
<0.1 (which cannot accurately be wt % | c1ccc(-c2ccc3cc4cc(-c5ccccc5)ccc4cc3c2)cc1 [Compound (C101), reference compound]
1.3 wt % | CCCCCCc1ccc2cc3cc(-c4ccccc4)ccc3cc2c1 [Compound (101)]
